Assay results taken from PubChem BioAssay (NCI).
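48-hour exposure; five concentrations; linearly interpolated endpoints. Here, GI50 denotes the concentration required for 50% inhibition of growth. At the TGI there is no net growth.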

How the values were obtained:
Assay in all cases: NCI tumour cell line growth inhibition, 48 h
[1] = test system: EKVX NSCLC
[2] = test system: HT29 colon
[3] = test system: CAKI-1 renal
[4] = test system: T-47D breast
[5] = test system: HOP-62 NSCLC
[6] = test system: A498 renal
[7] = test system: SR leukemia
[8] = test system: SK-OV-3 ovarian
[9] = test system: SK-MEL-28 melanoma
[10] = test system: SN12C renal
[11] = test system: DU-145 prostate
[12] = test system: HOP-92 NSCLC
[13] = test system: SK-MEL-2 melanoma
[14] = test system: HCT-116 colon
[15] = test system: SF-539 CNS
[16] = test system: M14 melanoma
[17] = test system: OVCAR-8 ovarian
[18] = test system: UACC-257 melanoma
[19] = test system: SNB-19 CNS
[20] = test system: OVCAR-5 ovarian
[21] = test system: NCI-H460 lung
[22] = test system: ACHN renal
[23] = test system: KM12 colon
[24] = test system: HS 578T breast
[25] = test system: MDA-MB-231 breast
[26] = test system: NCI-H522 lung
[27] = test system: K-562 leukemia
[28] = test system: UACC-62 melanoma
[29] = test system: PC-3 prostate
[30] = test system: IGROV1 ovarian
[31] = test system: MDA-MB-435
[32] = test system: OVCAR-4 ovarian
[33] = test system: SNB-75 CNS
[34] = test system: U251 CNS
[35] = test system: TK-10 renal
[36] = test system: OVCAR-3 ovarian
[37] = test system: NCI-H23 lung
[38] = test system: CCRF-CEM leukemia
[39] = test system: MDA-MB-468 breast
[40] = test system: MALME-3M melanoma
[41] = test system: SF-268 CNS
[42] = test system: UO-31 renal
[43] = test system: SF-295 CNS
[44] = test system: HCC-2998 colon
[45] = test system: HL-60(TB) leukemia
[46] = test system: COLO 205 colon
[47] = test system: MCF7 breast
[48] = test system: BT-549 breast
[49] = test system: A549 NSCLC
[50] = test system: RXF 393 renal
[51] = test system: 786-0 renal
[52] = test system: MOLT-4 leukemia
[53] = test system: SK-MEL-5 melanoma
[54] = test system: SW-620 colon
[55] = test system: HCT-15 colon
[56] = test system: RPMI-8226 leukemia
[57] = test system: NCI/ADR-RES ovarian
[58] = test system: NCI-H226 lung
[59] = test system: LOX IMVI melanoma

COc1cc(C2CC(c3ccc(C(F)(F)F)cc3)=Nc3c(N)nc(N)nc3N2)ccc1Oc1nc(Nc2ccc(F)cc2)nc(N(C)C)n1 (stereo unspecified)
GI50 [1]: 4.23 µM | TGI [1]: > 100 µM | GI50 [2]: 2.23 µM | TGI [2]: 5.86 µM | GI50 [3]: 1.65 µM | TGI [3]: > 100 µM | GI50 [4]: 19 µM | TGI [4]: > 100 µM | GI50 [5]: 17.8 µM | TGI [5]: 74.6 µM | GI50 [6]: 17 µM | TGI [6]: 89.9 µM | GI50 [7]: 1.89 µM | TGI [7]: 5.9 µM | GI50 [8]: 63.5 µM | TGI [8]: > 100 µM | GI50 [9]: 28.1 µM | TGI [9]: > 100 µM | GI50 [10]: 6.09 µM | TGI [10]: 46.6 µM | GI50 [11]: 4.9 µM | TGI [11]: > 100 µM | GI50 [12]: 2.1 µM | TGI [12]: 9.46 µM | GI50 [13]: 2.94 µM | TGI [13]: 11.7 µM | GI50 [14]: 1.76 µM | TGI [14]: 3.65 µM | GI50 [15]: 6.1 µM | TGI [15]: 22.1 µM | GI50 [16]: 4.41 µM | TGI [16]: 50.7 µM | GI50 [17]: 5.48 µM | TGI [17]: > 100 µM | GI50 [18]: 14.1 µM | TGI [18]: 76.5 µM | GI50 [19]: 9.14 µM | TGI [19]: > 100 µM | GI50 [20]: 35.2 µM | TGI [20]: > 100 µM | GI50 [21]: 2.61 µM | TGI [21]: 7.19 µM | GI50 [22]: 6.05 µM | TGI [22]: > 100 µM | GI50 [23]: 3.05 µM | TGI [23]: 11.7 µM | GI50 [24]: 4.77 µM | TGI [24]: 96.2 µM | GI50 [25]: 2.29 µM | TGI [25]: 8.39 µM | GI50 [26]: 4.75 µM | TGI [26]: 23.3 µM | GI50 [27]: 1.85 µM | TGI [27]: > 100 µM | GI50 [28]: 13.1 µM | TGI [28]: 31.2 µM | GI50 [29]: 3.2 µM | TGI [29]: > 100 µM | GI50 [30]: 5 µM | TGI [30]: > 100 µM | GI50 [31]: 4.59 µM | TGI [31]: 23.5 µM | GI50 [32]: 3.92 µM | TGI [32]: 33.1 µM | GI50 [33]: 2.17 µM | TGI [33]: > 100 µM | GI50 [34]: 4.63 µM | TGI [34]: 21.1 µM | GI50 [35]: 18 µM | TGI [35]: 71 µM | GI50 [36]: 5.46 µM | TGI [36]: 21.9 µM | GI50 [37]: 16.9 µM | TGI [37]: 74.9 µM | GI50 [38]: 3.32 µM | TGI [38]: > 100 µM | GI50 [39]: 2.4 µM | TGI [39]: 7.79 µM | GI50 [40]: 2.84 µM | TGI [40]: 14.2 µM | GI50 [41]: 6.14 µM | TGI [41]: > 100 µM | GI50 [42]: 3.66 µM | TGI [42]: > 100 µM | GI50 [43]: 7.12 µM | TGI [43]: 62.1 µM | GI50 [44]: 2.26 µM | TGI [44]: 5.69 µM | GI50 [45]: 2.35 µM | TGI [45]: 47.3 µM | GI50 [46]: 3.09 µM | TGI [46]: 14.7 µM | GI50 [47]: 2.66 µM | TGI [47]: 10.7 µM | GI50 [48]: 4.41 µM | TGI [48]: 21 µM | GI50 [49]: 4.78 µM | TGI [49]: > 100 µM | GI50 [50]: 1.22 µM | TGI [50]: 5.54 µM | GI50 [51]: 4 µM | TGI [51]: 16.6 µM | GI50 [52]: 1.71 µM | TGI [52]: > 100 µM | GI50 [53]: 3.32 µM | TGI [53]: 12.8 µM | GI50 [54]: 5.59 µM | TGI [54]: 75.2 µM | GI50 [55]: 3.4 µM | TGI [55]: 14.6 µM

COc1ccc(NC(=O)Cn2c(/C=C/c3cccc(OC)c3)nc3ccccc3c2=O)cc1
GI50 [1]: > 63.1 µM | TGI [1]: > 100 µM | GI50 [2]: > 100 µM | TGI [2]: > 100 µM | GI50 [3]: 2.52 µM | TGI [3]: > 31.7 µM | GI50 [4]: 2.41 µM | TGI [4]: 14.6 µM | GI50 [5]: 3.01 µM | TGI [5]: 28.3 µM | GI50 [6]: 1.96 µM | TGI [6]: 4.68 µM | GI50 [7]: 1.75 µM | TGI [7]: > 100 µM | GI50 [8]: 5.67 µM | TGI [8]: > 46.7 µM | GI50 [9]: > 75 µM | TGI [9]: > 100 µM | GI50 [10]: 1.85 µM | TGI [10]: > 39.1 µM | GI50 [11]: > 81.2 µM | TGI [11]: > 100 µM | GI50 [12]: 2.95 µM | TGI [12]: > 44.7 µM | GI50 [13]: 27.2 µM | TGI [13]: 79.6 µM | GI50 [14]: 1.21 µM | TGI [14]: > 59 µM | GI50 [15]: 1.65 µM | TGI [15]: 4.15 µM | GI50 [16]: > 29.3 µM | TGI [16]: > 100 µM | GI50 [17]: 4.55 µM | TGI [17]: > 100 µM | GI50 [56]: > 100 µM | TGI [56]: > 100 µM | GI50 [18]: > 100 µM | TGI [18]: > 100 µM | GI50 [19]: 8.37 µM | TGI [19]: > 59.3 µM | GI50 [20]: > 24.9 µM | TGI [20]: > 100 µM | GI50 [21]: 2.51 µM | TGI [21]: > 100 µM | GI50 [57]: 4.14 µM | TGI [57]: 86.9 µM | GI50 [22]: 1.24 µM | TGI [22]: 3.17 µM | GI50 [23]: > 100 µM | TGI [23]: > 100 µM | GI50 [24]: 2.46 µM | TGI [24]: > 100 µM | GI50 [25]: 1.4 µM | TGI [25]: 4.42 µM | GI50 [26]: 5.8 µM | TGI [26]: > 47.5 µM | GI50 [27]: > 100 µM | TGI [27]: > 100 µM | GI50 [28]: > 42.1 µM | TGI [28]: > 89.6 µM | GI50 [29]: > 54 µM | TGI [29]: > 100 µM | GI50 [30]: > 31 µM | TGI [30]: > 87.8 µM | GI50 [31]: > 100 µM | TGI [31]: > 100 µM | GI50 [33]: 1.63 µM | TGI [33]: 4.49 µM | GI50 [34]: 0.973 µM | TGI [34]: 4.2 µM | GI50 [35]: 2.03 µM | TGI [35]: 4.5 µM | GI50 [36]: 4.03 µM | TGI [36]: > 45.9 µM | GI50 [58]: 1.98 µM | TGI [58]: 6.51 µM | GI50 [37]: 3.69 µM | TGI [37]: > 44.3 µM | GI50 [38]: > 100 µM | TGI [38]: > 100 µM | GI50 [39]: 3.4 µM | TGI [39]: > 91.6 µM | GI50 [59]: 2.03 µM | TGI [59]: > 100 µM | GI50 [40]: 3.79 µM | TGI [40]: > 85.8 µM | GI50 [41]: 19.4 µM | TGI [41]: > 100 µM | GI50 [42]: 1.73 µM | TGI [42]: 3.77 µM | GI50 [43]: 2.56 µM | TGI [43]: > 41.1 µM | GI50 [44]: > 100 µM | TGI [44]: > 100 µM | GI50 [45]: > 100 µM | TGI [45]: > 100 µM | GI50 [46]: > 100 µM | TGI [46]: > 100 µM | GI50 [47]: 3.56 µM | TGI [47]: > 100 µM | GI50 [48]: 9.84 µM | TGI [48]: > 59.9 µM | GI50 [49]: 2.3 µM | TGI [49]: > 100 µM | GI50 [50]: 1.93 µM | TGI [50]: 5.63 µM | GI50 [51]: 1.54 µM | TGI [51]: 3.38 µM | GI50 [52]: > 100 µM | TGI [52]: > 100 µM | GI50 [53]: > 100 µM | TGI [53]: > 100 µM | GI50 [54]: > 100 µM | TGI [54]: > 100 µM | GI50 [55]: > 100 µM | TGI [55]: > 100 µM
